Drawing on patent EP2276347B1, “TOLTRAZURIL WITH IMPROVED DISSOLUTION PROPERTIES” (KRKA, tovarna zdravil, d.d., Novo mesto, priority 2008, dated 2009), this text covers Specific surface area for 7 compounds.

Each structure is given as a SMILES string.

This data set in a line: Specific surface area by nitrogen adsorption gas sorption (BET method). It counts as physicochemical. Conditions: toltrazuril particles, outgased in vacuum at room temperature. On the procedure: Specific surface area was measured by gas sorption system based on nitrogen adsorption, using Brunauer, Emmett and Teller (BET) method. Corresponding amount of sample was outgased in a vacuum at room temperature. After degasification the tube was weighed with sample and the analysis was proceeded.

Take `Cc1cc(-n2c(=O)[nH]c(=O)n(C)c2=O)ccc1Oc1ccc(SC(F)(F)F)cc1` [Example 1, toltrazuril]: the Specific surface area is 13.8 m^2/g.

Consider `Cc1cc(-n2c(=O)[nH]c(=O)n(C)c2=O)ccc1Oc1ccc(SC(F)(F)F)cc1` [Example 2, toltrazuril], for which the Specific surface area was 15 m^2/g.

`Cc1cc(-n2c(=O)[nH]c(=O)n(C)c2=O)ccc1Oc1ccc(SC(F)(F)F)cc1` [Example 3, toltrazuril]: the Specific surface area is recorded as 13.8 m^2/g.

On to `Cc1cc(-n2c(=O)[nH]c(=O)n(C)c2=O)ccc1Oc1ccc(SC(F)(F)F)cc1` [Example 4, toltrazuril], for which the Specific surface area was found to be 15.2 m^2/g.

On to `Cc1cc(-n2c(=O)[nH]c(=O)n(C)c2=O)ccc1Oc1ccc(SC(F)(F)F)cc1` [Example 5, toltrazuril], for which the Specific surface area is 19.5 m^2/g.

The compound `Cc1cc(-n2c(=O)[nH]c(=O)n(C)c2=O)ccc1Oc1ccc(SC(F)(F)F)cc1` [Example 6, toltrazuril] gave a Specific surface area of 18.8 m^2/g.

For `Cc1cc(-n2c(=O)[nH]c(=O)n(C)c2=O)ccc1Oc1ccc(SC(F)(F)F)cc1` [micronized toltrazuril, toltrazuril], the Specific surface area was determined as 14.1 m^2/g.
